Publication PMC2011122 (British Journal of Cancer, 1982)
Read-outs that look alike come from different tables or passages of the source.

Assays:
mammary carcinoma = system: mammary carcinoma; parameters: method as in Smith et al., 1978; conditions: postmenopausal women; ref Smith et al., 1978; cited from earlier work
bovine adrenal cells = system: bovine adrenal cells; parameters: method as in Coombes et al., 1980; conditions: bovine adrenal cells in culture, ref Coombes et al., 1980, cited from earlier work; for Glucocorticoid production, % of the resting levels: 10 ug/ml
[1] = parameters: method as in Coombes et al. (1980); conditions: after AG, ref Coombes et al. (1980), cited from earlier work
[2] = cited from earlier work
[3] = Polymorphic acetylation in humans; assay type: in vivo; conditions: conclusion from urinary excretion in 10 phenotyped volunteers
[4] = 24 h urinary excretion of AG and metabolites in volunteers given oral AG; conditions: oral AG 250 mg, 24 h urine, excreted as the named substance; for Percentage of the administered dose excreted in the urine during 24 h, mean, rapid (fast) acetylators: rapid acetylators of sulphadimidine (5 volunteers); for Percentage of the administered dose excreted in the urine during 24 h, mean, slow acetylators: slow acetylators of sulphadimidine (5 volunteers)
[5] = parameters: method as in Douglas & Nicholls, 1972; conditions: humans, urine; ref Douglas & Nicholls, 1972; cited from earlier work
[6] = 6 h urine after sulphadimidine
[7] = parameters: method as in Testa & Jenner, 1976; conditions: ref Testa & Jenner, 1976; cited from earlier work
[8] = parameters: method as in Hoffman & Tagmann, 1954; conditions: ref Hoffman & Tagmann, 1954; cited from earlier work
steroidogenesis = conditions: no reference given; cited from earlier work

CCC1(c2ccc(N)cc2)CCC(=O)NC1=O (stereo not shown) [AG, aminoglutethimide]
Efficacy in the treatment of mammary carcinoma (mammary carcinoma): effective agent | Glucocorticoid production, % of the resting levels (bovine adrenal cells): 833% | Plasma level at 0.5 h, mean, slow acetylators ([1]; 4 slow acetylators): 1140 ng/mL | Plasma level at 0.5 h, mean, rapid acetylators ([1]; 5 rapid acetylators): 960 ng/mL | Plasma level at 2 h, mean, rapid acetylators ([1]; 5 rapid acetylators): 0 to 60000 ng/mL | Side effects in patients ([2]; patients, ref Smith et al., 1978): skin rash and lethargy | Acetylation polymorphism in humans [3]: polymorphically acetylated

CCC1(c2ccc(NC(C)=O)cc2)CCC(=O)NC1=O (stereo not shown) [N-acetylAG, N-Acetylaminoglutethimide]
Percentage of the administered dose excreted in the urine during 24 h, mean, rapid (fast) acetylators [4]: 8.8% | Percentage of the administered dose excreted in the urine during 24 h, mean, slow acetylators [4]: 3.9% | Glucocorticoid production, % of the resting levels (bovine adrenal cells): 58% | Inhibition of steroidogenesis (ability to reduce corticosteroid output) (bovine adrenal cells; compared with AG): poor inhibitor | Plasma level at 8 h, mean, slow acetylators ([1]; 4 slow acetylators): 0 to 37000 ng/mL | Percentage of the administered dose of AG accounted for as urinary metabolite [5]: 4-25%

CC(=O)Nc1ccc(S(=O)(=O)Nc2nc(C)cc(C)n2)cc1 [N-acetylsulphadimidine]
Percentage of the excreted dose as N-acetylsulphadimidine, rapid acetylators ([6]; rapid acetylators): 89-96% | Percentage of the excreted dose as N-acetylsulphadimidine, slow acetylators ([6]; slow acetylators): 62-68%

CCC1(c2ccc(NC=O)cc2)CCC(=O)NC1=O (stereo not shown) [N-formylAG, N-Formylaminoglutethimide]
Percentage of the administered dose excreted in the urine during 24 h, mean, rapid (fast) acetylators [4]: 0.465% | Percentage of the administered dose excreted in the urine during 24 h, mean, slow acetylators [4]: 0.475%

Nc1ccc(S(=O)(=O)c2ccc(N)cc2)cc1 [diaminodiphenylsulphone]
Acetylation polymorphism in humans [7]: polymor- phically acetylated

CCC1(c2ccccc2)CCC(=O)NC1=O (stereo not shown) [glutethimide]
Hypnotic activity [8]: powerful hypnotic | Inhibitory effect on steroidogenesis (steroidogenesis): little inhibitory effect

NNc1nncc2ccccc12 [hydralazine]
Adverse side-effect induced ([2]; preponderantly in slow acetylators, ref Perry et al., 1970): lupus erythematosus

NNC(=O)c1ccncc1 [isoniazid]
Acetylation polymorphism in humans [7]: polymor- phically acetylated

CCC1(c2ccc([N+](=O)[O-])cc2)CCC(=O)NC1=O (stereo not shown) [nitroG, Nitroglutethimide]
Percentage of the administered dose excreted in the urine during 24 h, mean, rapid (fast) acetylators [4]: 0.047% | Percentage of the administered dose excreted in the urine during 24 h, mean, slow acetylators [4]: 0.10%

Cc1cc(C)nc(NS(=O)(=O)c2ccc(N)cc2)n1 [sulphamethazine]
Acetylation polymorphism in humans [7]: polymor- phically acetylated
